Source: US20160271263A1 (Novo Nordisk A/S, priority 2010, published 2016)
Numbered stars: 1 amine (or outer) side, 2 acyl side, 3 side chain; on linkers, the order of the positions; unused ones are H or OH. Square brackets hold non-standard residues; d marks the D form. Side chains are listed from the residue outwards. Peptide text beside a SMILES is read from it. * marks the point of attachment. C18 diacid = O=C(O)CCCCCCCCCCCCCCCCC(=O)*; γGlu = O=C(O)[C@H](CCC(=O)[*:2])N[*:1]; AEEA = NCCOCCOCC(=O)O

target: glucagon receptor (Homo sapiens, UniProt P47871); assay: cell-based
Sequence (P47871 26-477): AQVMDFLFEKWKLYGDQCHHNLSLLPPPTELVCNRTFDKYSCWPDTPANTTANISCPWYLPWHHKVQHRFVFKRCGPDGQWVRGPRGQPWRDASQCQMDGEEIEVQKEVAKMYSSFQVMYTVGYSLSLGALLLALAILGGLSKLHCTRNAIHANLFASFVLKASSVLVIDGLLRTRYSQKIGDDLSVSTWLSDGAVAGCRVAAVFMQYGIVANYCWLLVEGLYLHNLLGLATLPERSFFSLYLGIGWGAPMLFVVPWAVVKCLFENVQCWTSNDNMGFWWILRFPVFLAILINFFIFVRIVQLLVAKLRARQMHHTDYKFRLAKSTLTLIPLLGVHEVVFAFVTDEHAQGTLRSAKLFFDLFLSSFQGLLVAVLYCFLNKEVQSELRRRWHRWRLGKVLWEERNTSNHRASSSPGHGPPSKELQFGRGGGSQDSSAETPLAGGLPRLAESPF

Compound | EC50 [nM]
CSCC[C@H](NC(=O)[C@H](CC(C)C)NC(=O)[C@H](Cc1c[nH]c2ccccc12)NC(=O)[C@H](CCC(N)=O)NC(=O)[C@@H](NC(=O)[C@H](Cc1ccccc1)NC(=O)[C@H](CC(=O)O)NC(=O)[C@H](CCCNC(=N)N)NC(=O)[C@H](C)NC(=O)[C@H](C)NC(=O)[C@H](CCC(N)=O)NC(=O)[C@H](CCC(=O)O)NC(=O)[C@H](CC(=O)O)NC(=O)[C@H](CC(C)C)NC(=O)[C@H](Cc1ccc(O)cc1)NC(=O)[C@H](CCCCN)NC(=O)[C@H](CO)NC(=O)[C@H](Cc1ccc(O)cc1)NC(=O)[C@H](CC(=O)O)NC(=O)[C@H](CO)NC(=O)[C@@H](NC(=O)[C@H](Cc1ccccc1)NC(=O)[C@@H](NC(=O)CNC(=O)[C@H](CCC(N)=O)NC(=O)[C@H](CO)NC(=O)[C@@H](N)Cc1c[nH]cn1)[C@@H](C)O)[C@@H](C)O)C(C)C)C(=O)N[C@@H](CC(N)=O)C(=O)N[C@H](C(=O)N[C@@H](CCCCNC(=O)COCCOCCNC(=O)COCCOCCNC(=O)CC[C@H](NC(=O)CCCCCCCCCCCCCCCCC(=O)O)C(=O)O)C(N)=O)[C@@H](C)O [Example 27, N^α ([Glu^16,Gln^17,Ala^18,Arg^20]Glucagonyl) N^ε-([2-[2-[2-[[2-[2-[2-[[(4S)-5-hydroxy-4-[(18-hydroxy-18-oxooctadecanoyl)amino]-5-oxopentanoyl]amino]ethoxy]ethoxy]acetyl]amino]ethoxy]ethoxy]acetyl]) Lysinyl amide] (H-HSQGTFTSDYSKYLDEQAARDFVQWLMNTK([AEEA-AEEA-γGlu-C18 diacid])-NH2; N-terminus assumed) | 0.406
CC(C)C[C@H](NC(=O)[C@H](Cc1ccc(O)cc1)NC(=O)[C@H](CCCCN)NC(=O)[C@H](CO)NC(=O)[C@H](Cc1ccc(O)cc1)NC(=O)[C@H](CC(=O)O)NC(=O)[C@H](CO)NC(=O)[C@@H](NC(=O)[C@H](Cc1ccccc1)NC(=O)[C@@H](NC(=O)CNC(=O)[C@H](CCC(N)=O)NC(=O)[C@H](CO)NC(=O)[C@@H](N)Cc1c[nH]cn1)[C@@H](C)O)[C@@H](C)O)C(=O)N[C@@H](CC(=O)O)C(=O)N[C@@H](CCCCNC(=O)CC[C@H](NC(=O)CC[C@H](NC(=O)COCCOCCNC(=O)COCCOCCNC(=O)CC[C@H](NC(=O)CCCCCCCCCCCCCCCCC(=O)O)C(=O)O)C(=O)O)C(=O)O)C(=O)N[C@@H](CCCNC(=N)N)C(=O)N[C@@H](CCCNC(=N)N)C(=O)N[C@@H](C)C(=O)N[C@@H](CCC(N)=O)C(=O)N[C@@H](CCC(=O)O)C(=O)N[C@@H](Cc1ccccc1)C(=O)N[C@H](C(=O)N[C@@H](CCC(N)=O)C(=O)N[C@@H](CCCNC(=N)N)C(=O)N[C@@H](CC(C)C)C(=O)N[C@@H](CC(C)C)C(=O)N[C@@H](CC(N)=O)C(=O)N[C@H](C(=O)O)[C@@H](C)O)C(C)C [Example 100, N^ε16-[(4S)-4-carboxy-4-[[(4S)-4-carboxy-4-[[2-[2-[2-[[2-[2-[2-[[(4S)-4-carboxy-4-(17-carboxyheptadecanoylamino)butanoyl]amino]ethoxy]ethoxy]acetyl]amino]ethoxy]ethoxy]acetyl]amino]butanoyl]amino]butanoyl]-[Lys^16,Glu^21,Arg^25,Leu^27]-Glucagon] (H-HSQGTFTSDYSKYLDK([γGlu-γGlu-AEEA-AEEA-γGlu-C18 diacid])RRAQEFVQRLLNT-OH) | 0.45
CC(C)C[C@H](NC(=O)[C@H](Cc1ccc(O)cc1)NC(=O)[C@H](CCCCN)NC(=O)[C@H](CO)NC(=O)[C@H](Cc1ccc(O)cc1)NC(=O)[C@H](CC(=O)O)NC(=O)[C@H](CO)NC(=O)[C@@H](NC(=O)[C@H](Cc1ccccc1)NC(=O)[C@@H](NC(=O)CNC(=O)[C@H](CCC(N)=O)NC(=O)[C@H](CO)NC(=O)[C@@H](N)Cc1c[nH]cn1)[C@@H](C)O)[C@@H](C)O)C(=O)N[C@@H](CC(=O)O)C(=O)N[C@@H](CO)C(=O)N[C@@H](CCCNC(=N)N)C(=O)N[C@@H](CCCNC(=N)N)C(=O)N[C@@H](C)C(=O)N[C@@H](CCC(N)=O)C(=O)N[C@@H](CC(=O)O)C(=O)N[C@@H](Cc1ccccc1)C(=O)N[C@H](C(=O)N[C@@H](CCC(N)=O)C(=O)N[C@@H](Cc1c[nH]c2ccccc12)C(=O)N[C@@H](CC(C)C)C(=O)N[C@@H](CC(C)C)C(=O)N[C@@H](CCCCNC(=O)CC[C@H](NC(=O)CC[C@H](NC(=O)COCCOCCNC(=O)COCCOCCNC(=O)CC[C@H](NC(=O)CCCCCCCCCCCCCCCCC(=O)O)C(=O)O)C(=O)O)C(=O)O)C(=O)N1CCC[C@H]1C(=O)O)C(C)C [Example 86, N^ε28-[(4S)-4-carboxy-4-[[(4S)-4-carboxy-4-[[2-[2-[2-[[2-[2-[2-[[(4S)-4-carboxy-4-(17-carboxyheptadecanoylamino)butanoyl]amino]ethoxy]ethoxy]acetyl]amino]ethoxy]ethoxy]acetyl]amino]butanoyl]amino]butanoyl]-[Leu^27,Lys^28,Pro^29]-Glucagon] | 0.189

Continued, values first:

EC50 [nM] | Compound
0.149 | CC(C)C[C@H](NC(=O)[C@H](Cc1ccc(O)cc1)NC(=O)[C@H](CCCCN)NC(=O)[C@H](CO)NC(=O)[C@H](Cc1ccc(O)cc1)NC(=O)[C@H](CC(=O)O)NC(=O)[C@H](CO)NC(=O)[C@@H](NC(=O)[C@H](Cc1ccccc1)NC(=O)[C@@H](NC(=O)CNC(=O)[C@H](CCC(N)=O)NC(=O)[C@@H](CO)NC(=O)[C@@H](N)Cc1c[nH]cn1)[C@@H](C)O)[C@@H](C)O)C(=O)N[C@@H](CC(=O)O)C(=O)N[C@@H](CCC(=O)O)C(=O)N[C@@H](CCCNC(=N)N)C(=O)N[C@@H](CCCNC(=N)N)C(=O)N[C@@H](C)C(=O)N[C@@H](CCC(N)=O)C(=O)N[C@@H](CC(=O)O)C(=O)N[C@@H](Cc1ccccc1)C(=O)N[C@H](C(=O)N[C@@H](CCCCNC(=O)COCCOCCNC(=O)COCCOCCNC(=O)CC[C@H](NC(=O)CCCCCCCCCCCCCCCCC(=O)O)C(=O)O)C(=O)N[C@@H](Cc1c[nH]c2ccccc12)C(=O)N[C@@H](CC(C)C)C(=O)N[C@@H](CC(C)C)C(=O)N[C@@H](CC(N)=O)C(=O)N[C@H](C(=O)O)[C@@H](C)O)C(C)C [Example 2] (H-H[dS]QGTFTSDYSKYLDERRAQDFVK([AEEA-AEEA-γGlu-C18 diacid])WLLNT-OH; N-terminus and C-terminus assumed)
0.043 | CC(C)C[C@H](NC(=O)[C@H](Cc1ccc(O)cc1)NC(=O)[C@H](CCCCN)NC(=O)[C@H](CO)NC(=O)[C@H](Cc1ccc(O)cc1)NC(=O)[C@H](CC(=O)O)NC(=O)[C@H](CO)NC(=O)[C@@H](NC(=O)[C@H](Cc1ccccc1)NC(=O)[C@@H](NC(=O)CNC(=O)[C@H](CCC(N)=O)NC(=O)[C@H](CO)NC(=O)[C@@H](N)Cc1c[nH]cn1)[C@@H](C)O)[C@@H](C)O)C(=O)N[C@@H](CC(=O)O)C(=O)N[C@@H](CO)C(=O)N[C@@H](CCCNC(=N)N)C(=O)N[C@@H](CCCNC(=N)N)C(=O)N[C@@H](C)C(=O)N[C@@H](CCC(N)=O)C(=O)N[C@@H](CCC(=O)O)C(=O)N[C@@H](Cc1ccccc1)C(=O)N[C@H](C(=O)N[C@@H](CCCCNC(=O)COCCOCCNC(=O)COCCOCCNC(=O)CC[C@H](NC(=O)CCCCCCCCCCCCCCCCC(=O)O)C(=O)O)C(=O)N[C@@H](CCCNC(=N)N)C(=O)N[C@@H](CC(C)C)C(=O)N[C@@H](CC(C)C)C(=O)N[C@@H](CC(N)=O)C(=O)N[C@H](C(N)=O)[C@@H](C)O)C(C)C [Example 31, N^ε24-([2-[2-[2-[[2-[2-[2-[[(4S)-5-hydroxy-4-[(18-hydroxy-18-oxooctadecanoyl)amino]-5-oxopentanoyl]amino]ethoxy]ethoxy]acetyl]amino]ethoxy]ethoxy]acetyl])[Glu^21, Lys^24, Arg25 Leu^27,]Glucagon peptide amide]
0.093 | CC(C)C[C@H](NC(=O)[C@H](Cc1ccc(O)cc1)NC(=O)[C@H](CCCCN)NC(=O)[C@H](CO)NC(=O)[C@H](Cc1ccc(O)cc1)NC(=O)[C@H](CC(=O)O)NC(=O)[C@H](CO)NC(=O)[C@@H](NC(=O)[C@H](Cc1ccccc1)NC(=O)[C@@H](NC(=O)CNC(=O)[C@H](CCC(N)=O)NC(=O)[C@H](CO)NC(=O)[C@@H](N)Cc1c[nH]cn1)[C@@H](C)O)[C@@H](C)O)C(=O)N[C@@H](CC(=O)O)C(=O)N[C@@H](CO)C(=O)N[C@@H](CCCNC(=N)N)C(=O)N[C@@H](CCCNC(=N)N)C(=O)N[C@@H](C)C(=O)N[C@@H](CCC(N)=O)C(=O)N[C@@H](CC(=O)O)C(=O)N[C@@H](Cc1ccccc1)C(=O)N[C@H](C(=O)N[C@@H](CCC(N)=O)C(=O)N[C@@H](Cc1c[nH]c2ccccc12)C(=O)N[C@@H](CC(C)C)C(=O)N[C@@H](CC(C)C)C(=O)N[C@@H](CCCCNC(=O)CC[C@H](NC(=O)COCCOCCNC(=O)COCCOCCNC(=O)CC[C@H](NC(=O)CC[C@H](NC(=O)CCCCCCCCCCCCCCCCC(=O)O)C(=O)O)C(=O)O)C(=O)O)C(=O)N[C@H](C(=O)O)[C@@H](C)O)C(C)C [Example 66, N^ε28-[(4S)-4-carboxy-4-[[2-[2-[2-[[2-[2-[2-[[(4S)-4-carboxy-4-[[(4S)-4-carboxy-4-(17-carboxyheptadecanoylamino)butanoyl]amino]butanoyl]amino]ethoxy]ethoxy]acetyl]amino]ethoxy]ethoxy]acetyl]amino]butanoyl]-[Leu^27,Lys^28]-Glucagon]
0.116 | CC(C)C[C@H](NC(=O)[C@H](Cc1ccc(O)cc1)NC(=O)[C@H](CCCCN)NC(=O)[C@H](CO)NC(=O)[C@H](Cc1ccc(O)cc1)NC(=O)[C@H](CC(=O)O)NC(=O)[C@H](CO)NC(=O)[C@@H](NC(=O)[C@H](Cc1ccccc1)NC(=O)[C@@H](NC(=O)CNC(=O)[C@H](CCC(N)=O)NC(=O)[C@H](CO)NC(=O)[C@@H](N)Cc1c[nH]cn1)[C@@H](C)O)[C@@H](C)O)C(=O)N[C@@H](CC(=O)O)C(=O)N[C@@H](CO)C(=O)N[C@@H](CCCNC(=N)N)C(=O)N[C@@H](CCCNC(=N)N)C(=O)N[C@@H](C)C(=O)N[C@@H](CCC(N)=O)C(=O)N[C@@H](CC(=O)O)C(=O)N[C@@H](Cc1ccccc1)C(=O)N[C@H](C(=O)N[C@@H](CCC(N)=O)C(=O)N[C@@H](Cc1c[nH]c2ccccc12)C(=O)N[C@@H](CC(C)C)C(=O)N[C@@H](CC(C)C)C(=O)N[C@@H](CCCCNC(=O)COCCOCCNC(=O)COCCOCCNC(=O)CC[C@H](NC(=O)CC[C@H](NC(=O)CC[C@H](NC(=O)CCCCCCCCCCCCCCCCC(=O)O)C(=O)O)C(=O)O)C(=O)O)C(=O)N[C@H](C(=O)O)[C@@H](C)O)C(C)C [Example 67, N^ε28-[2-[2-[2-[[2-[2-[2-[[(4S)-4-carboxy-4-[[(4S)-4-carboxy-4-[[(4S)-4-carboxy-4-(17-carboxyheptadecanoylamino)butanoyl]amino]butanoyl]amino]butanoyl]amino]ethoxy]ethoxy]acetyl]amino]ethoxy]ethoxy]acetyl]-[Leu^27,Lys^28]-Glucagon]
